{"source": "patent US20030198617A1", "about": "“Pharmaceutical tryptophan containing dipeptide compositions and methods of use thereof” (priority 1993, published 2003)", "key": {"[1]": {"system": "T-cells", "experiment": "T-cell rosette assay", "type": "cell-based", "settings": "10^6 cells per ml"}, "[2]": {"experiment": "Radiation immunodeficiency correction two months after irradiation (Chernobyl), blood parameters", "type": "in vivo, human", "settings": "after IM862 therapy", "procedure": "These patients were treated for 2 months immediately succeeding exposure to radiation caused from the Chernobyl nuclear accident. As a control, about 19 people exposed to radiation were tested for various blood parameters to establish a baseline."}, "[3]": {"experiment": "Radiation injury patients (Example 67)", "type": "in vivo, human", "settings": "IM862 100 μg 10 days, 263 patients", "text": "A total of 263 patients and 18 control patients sustained exposure to radiation injury. […] A repeated course may be proscribed on the basis of immunological indices, and averages every 4 to 6 months. […] There was an arresting of asthenic syndrome, and an arresting of the somatic pathological exacerbations and reduction of opportunistic infections."}, "[4]": {"experiment": "Post-term women", "type": "in vivo, human", "settings": "IM862 IM or intranasally over 3-5 days, 19 women", "procedure": "A total of 19 post-term women and 48 women post-term in the control study were treated."}, "[5]": {"experiment": "Resistance to excessive solar radiation in hot marine climates", "type": "in vivo, human", "settings": "IM862 intranasally 100 μg 3 days, 27 persons", "procedure": "The control group comprised 24 persons. The administration was intranasally 100 μg for 3 days. […] There was also noted suppression of their immunologic indices."}, "[6]": {"experiment": "Infected patients with icterus (Example 95)", "type": "in vivo, human", "settings": "IM862 100 μg 5-10 days, 48 patients", "text": "The hematological and immunological indices were normalized."}}, "note": "Marks after values point to notes of the source that are not given here."}
{"substance": "Glu-Trp [IM862]", "values": [{"measurement": "concentration of peak effect for rosette activity", "setting": "[1]", "value": "approximately 0.0006 mcg/ml"}, {"measurement": "CD2, %", "setting": "[2]", "value": "48.7 ± 1.8", "unit": "%"}, {"measurement": "CD2, abs", "setting": "[2]", "value": "1.13 ± 0.08** 10^9/l"}, {"measurement": "CD2-DR+, %", "setting": "[2]", "value": "30.0 ± 1.2", "unit": "%"}, {"measurement": "CD2-DR+, abs", "setting": "[2]", "value": "0.55 ± 0.06* 10^9/l"}, {"measurement": "CD19, %", "setting": "[2]", "value": "27 ± 4", "unit": "%"}, {"measurement": "CD19, abs", "setting": "[2]", "value": "0.51 ± 0.10** 10^9/l"}, {"measurement": "E-RFC, %", "setting": "[2]", "value": "27.4 ± 2.4", "unit": "%"}, {"measurement": "IgA", "setting": "[2]", "value": "1.49 ± 0.19", "unit": "g/L"}, {"measurement": "IgG", "setting": "[2]", "value": "10.0 ± 1.0", "unit": "g/L"}, {"measurement": "IgM", "setting": "[2]", "value": "1.00 ± 0.10", "unit": "g/L"}, {"measurement": "LMI with ConA, %", "setting": "[2]", "value": "90 ± 10", "unit": "%"}, {"measurement": "Leukocytes, abs", "setting": "[2]", "value": "5.0 ± 1.2** 10^9/l"}, {"measurement": "Lymphocytes, 2abs", "setting": "[2]", "value": "1.9 ± 0.4* 10^9/l"}, {"measurement": "clinical effect", "setting": "[3]", "value": "restoration of normal or near normal immune indices"}, {"measurement": "clinical effect", "setting": "[4]", "value": "effacement of the cervix"}, {"measurement": "clinical effect", "setting": "[5]", "value": "prevented the occurrence of upper respiratory infections"}, {"measurement": "clinical effect", "setting": "[6]", "value": "normalization of fever"}]}
